The source of these data is PubChem BioAssay (NCI).

Test systems include BT-549 breast; COLO 205 colon; MDA-MB-231 breast; MOLT-4 leukemia; NCI-H23 lung; OVCAR-5 ovarian; RPMI-8226 leukemia; SK-OV-3 ovarian; SW-620 colon; UACC-62 melanoma.
Holding throughout (experiment): inhibition of tumour cell growth, NCI panel, 48 h

The structures appear in SMILES notation. Where “and” joins values, the source holds several entries; their conditions need not be identical. Equal entries are not always repeated.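 How tested: cells in 96-well plates exposed to compound for 48 hours at five concentrations. GI50 marks 50% less growth. TGI denotes the concentration required for complete inhibition of growth.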

As to `Cc1cc2c(cc1Cl)SC1=NN(C)C(C)N1S2(=O)=O` (stereo not given), the GI50 is 96.5 µM in the test on BT-549 breast; over 100 µM in the test on COLO 205 colon; over 100 µM in the test with MDA-MB-231 breast; 71 µM with MOLT-4 leukemia; over 100 µM in the test with NCI-H23 lung; over 100 µM with OVCAR-5 ovarian. For the same compound, the GI50 in the test on RPMI-8226 leukemia, in the test on SK-OV-3 ovarian, in the test on SW-620 colon and in the test on UACC-62 melanoma was over 100 µM in each case. For the same compound, the TGI in the test on BT-549 breast, with COLO 205 colon, in the test on MDA-MB-231 breast, with MOLT-4 leukemia, with NCI-H23 lung and in the test with OVCAR-5 ovarian was over 100 µM throughout. Moreover, the TGI with RPMI-8226 leukemia, with SK-OV-3 ovarian, in the test on SW-620 colon and with UACC-62 melanoma was over 100 µM throughout.

As to `CC(C)CCCC(C)[C@H]1CCC2[C@@H]3CCC4Cc5nc6c(nc5C[C@]4(C)C3CC[C@@]21C)CC1CC[C@@H]2C(CC[C@@]3(C)C2CC[C@@H]3C(C)CCCC(C)C)[C@@]1(C)C6` (stereo not given in full), the TGI in the test with BT-549 breast, in the test with COLO 205 colon, in the test on MDA-MB-231 breast, in the test on MOLT-4 leukemia, in the test on NCI-H23 lung and in the test on OVCAR-5 ovarian was over 100 µM in each case. The TGI with RPMI-8226 leukemia, in the test on SK-OV-3 ovarian, in the test with SW-620 colon and in the test on UACC-62 melanoma was over 100 µM each time.

For `CN(C)CCN1C(=O)c2c(c3c4ccccc4n4c3c3c2c2ccccc2n3C2CC(O)C(O)C4(C)O2)C1=O` (stereo not given), the GI50 in the test with BT-549 breast was 5.32 µM; in the test with COLO 205 colon, 1.23 µM; in the test with MDA-MB-231 breast, 2.61 µM; in the test with MOLT-4 leukemia, 0.209 µM; with NCI-H23 lung, 1.81 µM; in the test on OVCAR-5 ovarian it was 4.43 µM. Also, the GI50 was 1.58 µM in the test on RPMI-8226 leukemia, 1.8 µM with SK-OV-3 ovarian, 0.407 µM with SW-620 colon and 0.767 µM with UACC-62 melanoma. Besides, the TGI in the test with BT-549 breast is 13 µM; in the test on COLO 205 colon, 7.1 µM; in the test with MDA-MB-231 breast, 11.5 µM; with MOLT-4 leukemia it was 10.9 µM; in the test with NCI-H23 lung, 9.75 µM; in the test on OVCAR-5 ovarian it was 27.6 µM. The TGI in the test on RPMI-8226 leukemia turned out to be 7.82 µM; with SK-OV-3 ovarian, 9.9 µM; in the test on SW-620 colon, 7.7 µM; in the test on UACC-62 melanoma, 3.93 µM.

As for `CC1=C(C(=O)Nc2ccc3n[nH]c(C)c3c2)C(c2ccc(C(F)(F)F)cc2)CC(=O)N1` (stereo not given), the GI50 with BT-549 breast was 6.96 µM; in the test with COLO 205 colon it was 7.64 µM; in the test on MDA-MB-231 breast, 15.9 µM; in the test on MOLT-4 leukemia, 16.4 µM; with NCI-H23 lung it was over 17.6 µM; with OVCAR-5 ovarian, 16.2 µM. Besides, the GI50 is over 25 µM in the test with RPMI-8226 leukemia, 24.2 µM with SK-OV-3 ovarian, 11 µM in the test with SW-620 colon and 16 µM in the test with UACC-62 melanoma. Further, the TGI with BT-549 breast was over 25 µM; in the test on COLO 205 colon, over 19.1 µM; in the test on MDA-MB-231 breast it was over 25 µM; in the test on MOLT-4 leukemia, over 25 µM; in the test on NCI-H23 lung, over 25 µM; with OVCAR-5 ovarian, over 25 µM. Moreover, the TGI in the test on RPMI-8226 leukemia, with SK-OV-3 ovarian, in the test with SW-620 colon and with UACC-62 melanoma was over 25 µM in each case.

Regarding `CC1=NN(C(=O)c2ccccc2O)C(=O)/C1=C/c1ccc(O)cc1`, the TGI with BT-549 breast is over 100 µM; in the test on COLO 205 colon, over 94.6 µM; in the test on MDA-MB-231 breast, over 100 µM; in the test with MOLT-4 leukemia it was over 100 µM; in the test with NCI-H23 lung, 19.9 µM; with OVCAR-5 ovarian, over 100 µM. The TGI in the test on RPMI-8226 leukemia was over 100 µM; in the test with SK-OV-3 ovarian it was over 100 µM; in the test with SW-620 colon it was over 100 µM; in the test with UACC-62 melanoma, 5.06 µM.

With `C[C@H]1CC[C@@]2(NC1)O[C@H]1C[C@H]3[C@@H]4CC[C@H]5C[C@@H](O)CC[C@]5(C)[C@H]4CC[C@]3(C)[C@H]1[C@@H]2C`, the GI50 was 23.8 µM with BT-549 breast; 33.3 µM with COLO 205 colon; 7.26 µM in the test with MDA-MB-231 breast; over 50 µM in the test on MOLT-4 leukemia; 8.92 µM with NCI-H23 lung; 8.71 µM with OVCAR-5 ovarian. The GI50 with RPMI-8226 leukemia is 7.82 µM; in the test on SK-OV-3 ovarian, 22.7 µM; in the test with SW-620 colon, 24.9 µM; in the test with UACC-62 melanoma it was 9.42 µM. Further, the TGI with BT-549 breast was 50 µM and > 100 µM; in the test on COLO 205 colon, 50 µM and > 100 µM; with MDA-MB-231 breast, 15.9 µM and > 100 µM; with MOLT-4 leukemia, over 100 µM; in the test with NCI-H23 lung, 19.7 µM and > 100 µM; in the test with OVCAR-5 ovarian, 18.4 µM and > 100 µM. For the same compound, the TGI in the test with RPMI-8226 leukemia is 31.4 µM and > 100 µM; in the test with SK-OV-3 ovarian it was 50 µM and > 100 µM; in the test with SW-620 colon, 50 µM; in the test on UACC-62 melanoma, 17 µM and > 100 µM.

For the compound `Cc1ccc(S(=O)(=O)c2c(COC(=O)c3cccc(C)c3)c(-c3ccccc3)nn2C)cc1`, the GI50 in the test with BT-549 breast, in the test on COLO 205 colon, in the test on MDA-MB-231 breast, in the test on MOLT-4 leukemia, in the test on NCI-H23 lung and in the test on OVCAR-5 ovarian was over 100 µM in each case. Further, the GI50 with RPMI-8226 leukemia was over 100 µM; with SK-OV-3 ovarian it was over 100 µM; with SW-620 colon it was over 100 µM; in the test with UACC-62 melanoma it was 8.41 µM. For the same compound, the TGI in the test on BT-549 breast, in the test on COLO 205 colon, with MDA-MB-231 breast, in the test with MOLT-4 leukemia, in the test on NCI-H23 lung and in the test with OVCAR-5 ovarian was over 100 µM in each case. Further, the TGI with RPMI-8226 leukemia, in the test on SK-OV-3 ovarian, in the test on SW-620 colon and with UACC-62 melanoma was over 100 µM in each case.

Regarding `Cc1cc(NC(=O)NC(=O)c2ccccc2NC(=O)C(C)N)ccc1Oc1ncc(Br)cn1` (stereo not given), the TGI with BT-549 breast was found to be 48.9 µM; in the test with COLO 205 colon, 0.852 µM; in the test on MDA-MB-231 breast it was 11.8 µM; with MOLT-4 leukemia, 52.2 µM; with NCI-H23 lung it was 8.56 µM; in the test on OVCAR-5 ovarian it was 25.1 µM. For the same compound, the TGI came out at 61.5 µM in the test on RPMI-8226 leukemia, 15.9 µM in the test on SK-OV-3 ovarian, 44.4 µM with SW-620 colon and 15.5 µM in the test on UACC-62 melanoma.

In the case of `Cc1[nH]c2ccccc2c1CCCO`, the GI50 in the test on BT-549 breast, with COLO 205 colon, in the test on MDA-MB-231 breast, in the test with MOLT-4 leukemia, with NCI-H23 lung and with OVCAR-5 ovarian was over 100 µM each time. For the same compound, the GI50 with RPMI-8226 leukemia, in the test with SK-OV-3 ovarian, in the test with SW-620 colon and in the test with UACC-62 melanoma was over 100 µM each time. The TGI in the test on BT-549 breast, in the test on COLO 205 colon, in the test on MDA-MB-231 breast, in the test with MOLT-4 leukemia, with NCI-H23 lung and in the test on OVCAR-5 ovarian was over 100 µM throughout. In addition, the TGI in the test with RPMI-8226 leukemia, with SK-OV-3 ovarian, in the test on SW-620 colon and in the test on UACC-62 melanoma was over 100 µM in each case.

As to `COc1cc2c(cc1OC)[C@H](C)N1CCc3cc(OC)c(OC)cc3[C@@H]1C2`, the TGI in the test with BT-549 breast, with COLO 205 colon, in the test on MDA-MB-231 breast, in the test on MOLT-4 leukemia, in the test with NCI-H23 lung and with OVCAR-5 ovarian was over 100 µM in each case. The TGI in the test on RPMI-8226 leukemia, with SK-OV-3 ovarian, with SW-620 colon and in the test on UACC-62 melanoma was over 100 µM each time.

Take `COC(=O)C1(Cc2ccc3c(c2)CCC3)Cc2ccccc2C1O` (stereo not given): the TGI in the test with BT-549 breast was determined as 35.1 µM; in the test with COLO 205 colon it was 33.8 µM; with MDA-MB-231 breast, 67.4 µM; in the test on MOLT-4 leukemia it was 35.5 µM; in the test with NCI-H23 lung it was 45 µM; in the test on OVCAR-5 ovarian, 80 µM. Besides, the TGI with RPMI-8226 leukemia was 80.4 µM; in the test with SK-OV-3 ovarian it was 44.2 µM; in the test with SW-620 colon, 43.5 µM; with UACC-62 melanoma, 28.1 µM.

As for `COc1ccc(C/C(C)=C(/c2ccc(OCCN3CCCCC3)cc2)c2ccc(OC(=O)NCc3ccccc3)cc2)cc1`, the GI50 in the test with BT-549 breast was 0.379 µM; in the test on COLO 205 colon, 0.437 µM; in the test on MDA-MB-231 breast, 0.44 µM; in the test with MOLT-4 leukemia it was 0.404 µM; in the test with NCI-H23 lung, 0.425 µM; with OVCAR-5 ovarian, 0.415 µM. In addition, the GI50 with RPMI-8226 leukemia was 0.399 µM; in the test with SK-OV-3 ovarian, 0.436 µM; in the test with SW-620 colon, 0.419 µM; in the test with UACC-62 melanoma, 0.455 µM. The TGI in the test with BT-549 breast turned out to be 0.763 µM; in the test on COLO 205 colon, 0.9 µM; in the test with MDA-MB-231 breast, 0.81 µM; in the test on MOLT-4 leukemia it was 1.1 µM; in the test on NCI-H23 lung, 0.838 µM; in the test on OVCAR-5 ovarian, 0.78 µM. Also, the TGI with RPMI-8226 leukemia was determined as 0.963 µM; in the test with SK-OV-3 ovarian, 0.838 µM; in the test with SW-620 colon, 0.808 µM; in the test with UACC-62 melanoma, 0.817 µM.

`O=C(Nc1cccc(-n2cc(-c3ccncc3)c(-c3ccc(Cl)c(O)c3)n2)c1)Nc1cc(C(F)(F)F)cc(C(F)(F)F)c1`: the GI50 in the test on BT-549 breast was 1.05 µM; with COLO 205 colon it was 0.896 µM; in the test with MDA-MB-231 breast, 0.768 µM; in the test with MOLT-4 leukemia, 1.15 µM; in the test on NCI-H23 lung it was 0.998 µM; in the test on OVCAR-5 ovarian, 0.846 µM. For the same compound, the GI50 with RPMI-8226 leukemia was 0.434 µM; with SK-OV-3 ovarian it was 1.18 µM; in the test with SW-620 colon, 1.18 µM; in the test on UACC-62 melanoma it was 0.766 µM. Moreover, the TGI came out at 2.05 µM in the test with BT-549 breast; 1.71 µM in the test with COLO 205 colon; 1.66 µM in the test on MDA-MB-231 breast; 4.36 µM in the test on MOLT-4 leukemia; 2.86 µM in the test with NCI-H23 lung; 1.88 µM with OVCAR-5 ovarian. For the same compound, the TGI in the test with RPMI-8226 leukemia is 10.6 µM; with SK-OV-3 ovarian it was 2.83 µM; with SW-620 colon, 3.73 µM; with UACC-62 melanoma, 1.96 µM.
